In PubChem BioAssay (NCI) one finds TGI and GI50 data, which are given here for nine compounds.

Among the test systems are A549 NSCLC; COLO 205 colon; HCT-116 colon; IGROV1 ovarian; NCI-H23 lung; NCI-H522 lung; OVCAR-8 ovarian; SK-MEL-28 melanoma; SK-OV-3 ovarian; SR leukemia.
Holding throughout (experiment): growth of human tumour cells (NCI), 48 h

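All cell lines were grown in 96-well plates and treated with compound for 48 hours. GI50 = concentration required for 50% inhibition of growth. At the TGI there is no net growth.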 Some results are limits rather than exact numbers.

Regarding `COc1cc2cc(Oc3ccc(NC(=O)Nc4ccc(Cl)c(C(F)(F)F)c4)cc3)c(C)nc2cc1OC`, the TGI is 4.16 µM in the assay with A549 NSCLC; 1.31 µM in the assay with COLO 205 colon; 3.84 µM with HCT-116 colon; 9.83 µM in the assay on IGROV1 ovarian; 3.79 µM with NCI-H23 lung; 2.65 µM in the assay on NCI-H522 lung. The TGI in the assay with OVCAR-8 ovarian turned out to be 4.55 µM; with SK-MEL-28 melanoma, 5.45 µM; in the assay on SK-OV-3 ovarian, 5.79 µM; in the assay on SR leukemia, 2.65 µM. Moreover, the GI50 is 0.66 µM with COLO 205 colon; 0.994 µM with HCT-116 colon; 2.34 µM with IGROV1 ovarian; 0.991 µM in the assay on NCI-H23 lung; 0.773 µM in the assay with NCI-H522 lung; 1.04 µM with OVCAR-8 ovarian. Also, the GI50 with SK-MEL-28 melanoma is 1.41 µM; in the assay with SK-OV-3 ovarian, 1.35 µM; in the assay on SR leukemia, 0.831 µM.

Turning to `Cc1ccc2c(c1)O/C(=C\c1ccc([N+](=O)[O-])o1)C2=O`, the GI50 is 2.74 µM in the assay with A549 NSCLC; 1.43 µM in the assay on COLO 205 colon; 0.373 µM in the assay with HCT-116 colon; 1.42 µM in the assay on IGROV1 ovarian; 1.94 µM in the assay on NCI-H23 lung; 0.531 µM in the assay on NCI-H522 lung. In addition, the GI50 is 1.4 µM in the assay on OVCAR-8 ovarian, 2.15 µM in the assay with SK-MEL-28 melanoma, 4.66 µM in the assay with SK-OV-3 ovarian and 0.168 µM in the assay with SR leukemia. Further, the TGI in the assay on A549 NSCLC is 8.53 µM; in the assay with COLO 205 colon, 3.28 µM; in the assay on HCT-116 colon it was 1.32 µM; in the assay on IGROV1 ovarian, 4.69 µM; in the assay on NCI-H23 lung, 4.82 µM; with NCI-H522 lung, 1.86 µM. Also, the TGI in the assay with OVCAR-8 ovarian is 6.57 µM; with SK-MEL-28 melanoma, 4.89 µM; in the assay with SK-OV-3 ovarian it was greater than 100 µM; in the assay with SR leukemia, 0.799 µM.

With `O=C(O)c1cc(Cc2ccc(O)c(C(=O)O)c2)ccc1O` (tested in a mixture with another compound), the GI50 in the assay with A549 NSCLC was 9.82 µM; in the assay on COLO 205 colon, 1.57 µM; with HCT-116 colon, 3.67 µM; in the assay on IGROV1 ovarian, 4.72 µM; in the assay with NCI-H23 lung, 5.31 µM; in the assay on NCI-H522 lung, 12.5 µM. For the same compound, the GI50 in the assay with OVCAR-8 ovarian was 2.41 µM; in the assay with SK-MEL-28 melanoma, 10.1 µM; in the assay on SK-OV-3 ovarian it was 11.4 µM; in the assay with SR leukemia it was 1.41 µM. Further, the TGI turned out to be 28 µM with A549 NSCLC; 3.41 µM in the assay with COLO 205 colon; 14.2 µM in the assay on HCT-116 colon; 20.6 µM in the assay with IGROV1 ovarian; 20 µM with NCI-H23 lung; 33.8 µM in the assay on NCI-H522 lung. Besides, the TGI with OVCAR-8 ovarian stood at 6.26 µM; with SK-MEL-28 melanoma, 26.8 µM; in the assay on SK-OV-3 ovarian it was 24.6 µM; in the assay on SR leukemia, 8.67 µM.

As to `c1cc(-c2cn[nH]c2)cc(-c2cn[nH]c2)c1`, the TGI with A549 NSCLC was 69.5 µM; in the assay on COLO 205 colon it was greater than 100 µM; with HCT-116 colon, 49.4 µM; with IGROV1 ovarian, greater than 100 µM; with NCI-H23 lung, greater than 100 µM; in the assay with NCI-H522 lung, greater than 100 µM. In addition, the TGI was greater than 100 µM in the assay on OVCAR-8 ovarian, greater than 100 µM with SK-MEL-28 melanoma, 37.5 µM with SK-OV-3 ovarian and greater than 100 µM in the assay on SR leukemia.

`C#Cc1cccc(Oc2ccc(NC(=O)CCl)cc2)c1`: the GI50 is greater than 82.5 µM with A549 NSCLC; 21.2 µM in the assay on COLO 205 colon; 30.9 µM in the assay with HCT-116 colon; 5.85 µM with IGROV1 ovarian; 48.1 µM with NCI-H23 lung; 33.5 µM in the assay on NCI-H522 lung. Further, the GI50 is 64.3 µM in the assay with OVCAR-8 ovarian, greater than 82.5 µM with SK-MEL-28 melanoma, greater than 82.5 µM in the assay on SK-OV-3 ovarian and 11.5 µM in the assay on SR leukemia. Moreover, the TGI in the assay with A549 NSCLC was greater than 82.5 µM; with COLO 205 colon, 73.3 µM; in the assay on HCT-116 colon, greater than 82.5 µM; in the assay with IGROV1 ovarian it was 42.4 µM; in the assay on NCI-H23 lung, greater than 82.5 µM; with NCI-H522 lung it was greater than 82.5 µM. Moreover, the TGI with OVCAR-8 ovarian, with SK-MEL-28 melanoma, in the assay with SK-OV-3 ovarian and in the assay with SR leukemia was greater than 82.5 µM each time.

For the compound `CC(O)(CNS(=O)(=O)c1ccccc1)c1ccccc1` (centres undefined), the TGI with A549 NSCLC, with COLO 205 colon, with HCT-116 colon, in the assay on IGROV1 ovarian, in the assay with NCI-H23 lung and in the assay on NCI-H522 lung was greater than 100 µM throughout. In addition, the TGI with OVCAR-8 ovarian, in the assay with SK-MEL-28 melanoma, with SK-OV-3 ovarian and in the assay with SR leukemia was greater than 100 µM throughout.

For `CCOc1ccc2ccc3cccnc3c2n1`, the TGI in the assay on A549 NSCLC, in the assay on COLO 205 colon, in the assay on HCT-116 colon, in the assay with IGROV1 ovarian, in the assay on NCI-H23 lung and with NCI-H522 lung was greater than 100 µM throughout. In addition, the TGI is greater than 100 µM in the assay with OVCAR-8 ovarian, greater than 100 µM with SK-MEL-28 melanoma, 95.2 µM in the assay with SK-OV-3 ovarian and 73 µM in the assay with SR leukemia.

As to `Cc1ccc(C2C3=C(N=c4s/c(=C/c5ccc(Br)cc5)c(=O)n42)c2ccc4ccccc4c2OCC3)cc1` (centres undefined), the GI50 in the assay with A549 NSCLC, in the assay on COLO 205 colon, in the assay on HCT-116 colon, with IGROV1 ovarian, with NCI-H23 lung and with NCI-H522 lung was greater than 100 µM each time. Moreover, the GI50 in the assay on OVCAR-8 ovarian, in the assay with SK-MEL-28 melanoma, in the assay with SK-OV-3 ovarian and with SR leukemia was greater than 100 µM in each case. For the same compound, the TGI in the assay with A549 NSCLC, in the assay with COLO 205 colon, in the assay with HCT-116 colon, in the assay with IGROV1 ovarian, with NCI-H23 lung and in the assay on NCI-H522 lung was greater than 100 µM in each case. Further, the TGI with OVCAR-8 ovarian, in the assay on SK-MEL-28 melanoma, with SK-OV-3 ovarian and in the assay with SR leukemia was greater than 100 µM in each case.

On to `Cn1c2ccccc2c(=O)c2c([N+](=O)[O-])ccc(NCCN)c21`, for which the TGI was determined as 25.5 µM with A549 NSCLC; 19.3 µM in the assay on COLO 205 colon; 15.3 µM in the assay on HCT-116 colon; 27.2 µM in the assay on IGROV1 ovarian; 23.6 µM in the assay on NCI-H23 lung; 20.5 µM with NCI-H522 lung. Further, the TGI in the assay with OVCAR-8 ovarian is 24.5 µM; in the assay on SK-MEL-28 melanoma, 29.2 µM; in the assay on SK-OV-3 ovarian, 29.4 µM; in the assay on SR leukemia, greater than 100 µM.
